Several values for one entry are separate records, joined by “and”; a condition that tells them apart may be missing. Equal values may be shown once. Where a name gives a salt, the structure may show the parent alone. Read-outs that look alike come from different tables or passages of the source.
Legend:
[1] = tested on: head twitch response; settings: cited from earlier work
[2] = tested on: head twitch response; assay: Mouse head twitch response (HTR) assay (literature); format: in vivo; settings: from the HTR ED50 values
[3] = molecular target: 5-HT2A receptor; settings: described by Nichols; cited from earlier work
[4] = tested on: 5-HT2A receptor; settings: described by Nichols; cited from earlier work; remark: listed apart in the source
[5] = molecular target: human 5-HT2B receptor (Homo sapiens, UniProt P41595); assay: Competition binding to the human 5-HT2B receptor ([3H]LSD, CHO-5-HT2B membranes)
human 5-HT2B receptor, sequence (P41595 whole entry): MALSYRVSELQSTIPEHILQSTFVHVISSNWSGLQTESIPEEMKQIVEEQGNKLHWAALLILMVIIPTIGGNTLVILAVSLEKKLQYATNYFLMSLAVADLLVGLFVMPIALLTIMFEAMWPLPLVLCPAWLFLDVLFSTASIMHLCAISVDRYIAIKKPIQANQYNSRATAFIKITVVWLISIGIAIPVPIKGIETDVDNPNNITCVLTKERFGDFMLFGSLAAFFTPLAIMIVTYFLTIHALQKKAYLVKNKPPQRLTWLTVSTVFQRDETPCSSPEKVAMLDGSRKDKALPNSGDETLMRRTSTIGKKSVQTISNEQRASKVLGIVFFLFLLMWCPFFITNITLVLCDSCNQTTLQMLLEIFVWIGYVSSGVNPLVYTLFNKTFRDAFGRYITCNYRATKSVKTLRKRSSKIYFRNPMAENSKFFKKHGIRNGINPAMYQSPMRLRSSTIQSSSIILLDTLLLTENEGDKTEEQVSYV

[6] = molecular target: T1, human 5-HT2A receptor (Homo sapiens, UniProt P28223); assay: Ca2+ mobilization in CHO h5-HT2A cells; format: cell-based
T1 construct: expressed in transfected cells; host or cells: CHO (CHO-5-HT2A cell line)
T1 sequence (P28223 whole entry): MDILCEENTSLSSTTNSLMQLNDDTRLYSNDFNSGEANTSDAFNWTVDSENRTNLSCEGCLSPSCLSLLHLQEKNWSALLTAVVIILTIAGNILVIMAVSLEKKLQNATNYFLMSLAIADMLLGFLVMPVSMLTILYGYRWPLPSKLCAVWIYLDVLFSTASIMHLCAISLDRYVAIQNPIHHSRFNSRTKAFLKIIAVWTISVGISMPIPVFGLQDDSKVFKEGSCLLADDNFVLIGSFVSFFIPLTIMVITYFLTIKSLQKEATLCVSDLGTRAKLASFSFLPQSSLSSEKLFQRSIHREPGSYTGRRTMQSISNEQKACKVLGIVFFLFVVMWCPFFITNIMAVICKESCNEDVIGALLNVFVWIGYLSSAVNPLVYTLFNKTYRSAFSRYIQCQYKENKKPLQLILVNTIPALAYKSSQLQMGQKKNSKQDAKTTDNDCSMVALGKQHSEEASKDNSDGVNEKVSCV

[7] = molecular target: T1, human 5-HT2A receptor; assay: Competition binding to the human 5-HT2A receptor ([3H]ketanserin, CHO-5-HT2A membranes)
[8] = molecular target: T2, human 5-HT2C receptor (Homo sapiens, UniProt P28335); assay: Ca2+ mobilization in HeLa h5-HT2C cells; format: cell-based
T2 construct: expressed in transfected cells; host or cells: HeLa (HeLa-5-HT2C cell line)
T2 sequence (P28335 33-458): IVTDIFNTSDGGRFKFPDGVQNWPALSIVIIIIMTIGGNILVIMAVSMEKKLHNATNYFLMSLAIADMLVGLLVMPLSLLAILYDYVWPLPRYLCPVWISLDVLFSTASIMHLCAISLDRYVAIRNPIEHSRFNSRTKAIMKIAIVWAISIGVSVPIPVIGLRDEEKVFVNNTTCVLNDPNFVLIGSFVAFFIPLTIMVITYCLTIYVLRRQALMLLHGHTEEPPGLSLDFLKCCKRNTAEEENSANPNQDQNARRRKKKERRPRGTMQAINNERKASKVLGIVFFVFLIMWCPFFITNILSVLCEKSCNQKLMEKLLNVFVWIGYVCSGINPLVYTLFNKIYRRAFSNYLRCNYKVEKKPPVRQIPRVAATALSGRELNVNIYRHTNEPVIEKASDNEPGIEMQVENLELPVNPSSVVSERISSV

[9] = molecular target: T2, human 5-HT2C receptor; assay: Competition binding to the human 5-HT2C receptor ([3H]mesulergine, HeLa-5-HT2C membranes)
[10] = molecular target: 5-HT2C receptor; design: method as in PMID 27216487; settings: reported affinity; cited from earlier work
[11] = molecular target: 5-HT2A receptor; design: method as in PMID 27216487; settings: reported affinity; cited from earlier work
[12] = tested on: 5-HT2C receptor; settings: cited from earlier work
[13] = molecular target: 5-HT2A receptors; settings: cited from earlier work
[14] = relative efficacy, % of response to 5-HT

Structure (SMILES): Oc1ccccc1CNCCc1c[nH]c2ccccc12 (as salt: hydrochloride) [Compound 2, N-(2-Hydroxybenzyl)-[2-(1H-indol-3-yl)ethyl]amine]
- melting point: 222 to 223 °C

Structure (SMILES): CCOc1ccc(CNCCc2c[nH]c3ccccc23)cc1 (as salt: hydrochloride) [Compound 15, N-(4-Ethoxybenzyl)-[2-(1H-indol-3-yl)ethyl]amine]
- melting point: 206 to 208 °C

Structure (SMILES): COc1cccc(CNCCc2c[nH]c3ccccc23)c1OC (as salt: hydrochloride) [Compound 20, N-(2,3-Dimethoxybenzyl)-[2-(1H-indol-3-yl)ethyl]amine]
- melting point: 210 to 212 °C

Structure (SMILES): Oc1ccc(F)cc1CNCCc1c[nH]c2ccccc12 (as salt: hydrochloride) [Compound 24, N-(5-Fluoro-2-hydroxybenzyl)-[2-(1H-indol-3-yl)ethyl]amine]
- melting point: 185 to 186 °C

Structure (SMILES): COc1ccc(F)cc1CNCCc1c[nH]c2ccccc12 (as salt: hydrochloride) [Compound 25, N-(5-Fluoro-2-methoxybenzyl)-[2-(1H-indol-3-yl)ethyl]amine]
- melting point: 179 to 180 °C

Structure (SMILES): Oc1ccc(Br)cc1CNCCc1c[nH]c2ccccc12 (as salt: hydrochloride) [Compound 26, N-(5-Bromo-2-hydroxybenzyl)-[2-(1H-indol-3-yl)ethyl]amine]
- melting point: 188 to 189 °C

Structure (SMILES): COc1ccc(Br)cc1CNCCc1c[nH]c2ccccc12 (as salt: hydrochloride) [Compound 27, N-(5-Bromo-2-methoxybenzyl)-[2-(1H-indol-3-yl)ethyl]amine]
- melting point: 192 to 193 °C

Structure (SMILES): COc1ccc(Cl)cc1CNCCc1c[nH]c2ccccc12 (as salt: hydrochloride) [Compound 28, N-(5-Chloro-2-methoxybenzyl)-[2-(1H-indol-3-yl)ethyl]amine]
- melting point: 184 to 185 °C

Structure (SMILES): COc1ccc(OC)c(CNCCc2c[nH]c3ccccc23)c1 (as salt: hydrochloride) [Compound 29, N-(2,5-Dimethoxybenzyl)-[2-(1H-indol-3-yl)ethyl]amine]
- melting point: 175 to 176 °C

Structure (SMILES): O=[N+]([O-])c1ccc(O)c(CNCCc2c[nH]c3ccccc23)c1 (as salt: hydrochloride) [Compound 30, N-(5-Nitro-2-hydroxybenzyl)-[2-(1H-indol-3-yl)ethyl]amine]
- melting point: 194 to 196 °C

Structure (SMILES): Oc1cc(Br)ccc1CNCCc1c[nH]c2ccccc12 (as salt: hydrochloride) [Compound 31, N-(4-Bromo-2-hydroxybenzyl)-[2-(1H-indol-3-yl)ethyl]amine]
- melting point: 192 to 194 °C

Structure (SMILES): COc1ccc(CNCCc2c[nH]c3ccccc23)c(OC)c1 (as salt: hydrochloride) [Compound 32, N-(2,4-Dimethoxybenzyl)-[2-(1H-indol-3-yl)ethyl]amine]
- melting point: 184 to 186 °C

Structure (SMILES): Oc1cccc(Br)c1CNCCc1c[nH]c2ccccc12 (as salt: hydrochloride) [Compound 33, N-(6-Bromo-2-hydroxybenzyl)-[2-(1H-indol-3-yl)ethyl]amine]
- melting point: 195 to 196 °C

Structure (SMILES): Oc1c(Br)cc(Br)cc1CNCCc1c[nH]c2ccccc12 (as salt: hydrochloride) [Compound 35, N-(3,5-Dibromo-2-hydroxybenzyl)-[2-(1H-indol-3-yl)ethyl]amine]
- melting point: 183 to 184 °C

Structure (SMILES): COc1cccc(CNCCc2c[nH]c3ccccc23)c1O (as salt: succinate) [Compound 19, N-(2-Hydroxy-3-methoxybenzyl)-[2-(1H-indol-3-yl)ethyl]amine]
- melting point: 109 to 111 °C

Structure (SMILES): Oc1c(Br)cccc1CNCCc1c[nH]c2ccccc12 (as salt: succinate) [Compound 21, N-(3-Bromo-2-hydroxybenzyl)-[2-(1H-indol-3-yl)ethyl]amine]
- melting point: 141 to 142 °C

Structure (SMILES): Oc1c(F)cccc1CNCCc1c[nH]c2ccccc12 (as salt: succinate) [Compound 22, N-(3-Fluoro-2-hydroxybenzyl)-[2-(1H-indol-3-yl)ethyl]amine]
- melting point: 151 to 152 °C

Structure (SMILES): Oc1cccc(F)c1CNCCc1c[nH]c2ccccc12 (as salt: succinate) [Compound 34, N-(6-Fluoro-2-hydroxybenzyl)-[2-(1H-indol-3-yl)ethyl]amine]
- melting point: 159 to 161 °C

Structure (SMILES): COc1cc(CCNCc2ccccc2OC)c(OC)cc1I [Compound 25I-NBOMe, 4-iodo-2,5-dimethoxy-N-(2-methoxybenzyl)phenethylamine, reference compound]
- ED50 in the mouse head twitch response (HTR) assay [1]: 0.078 mg/kg
- fold higher in vivo potency (HTR) than compound 38 [2]: 40 fold
- Ki [3]: 0.52 nM

Structure (SMILES): COc1ccc2[nH]cc(CCNCc3ccccc3OC)c2c1 [Compound 38, N-(2-Methoxybenzyl)-[2-(5-methoxy-1H-indol-3-il)ethyl]amine]
- ED50 in the mouse head twitch response (HTR) assay [1]: 3.15 mg/kg
- 5-HT2A Emax [4]: 81%
- EC50 [4]: 1.9 nM
- Ki [3]: 16.6 nM
- Ki [5]: 15.9 nM
- 5-HT2A pEC50 ([6]; Ca2+ mobilization, pEC50 ± SEM): 8.70 ± 0.20
- EC50 ([6]; Ca2+ mobilization, no unit in the table, nM, read-out: 5-HT2A EC50 (in parentheses) (converted)): 2 nM and 1.99 nM
- Selectivity 5-HT2A/2C (functional) ([6]; from EC50 values, Table 2): 1.91
- 5-HT2A % Emax [6, 14]: 83.66 ± 3.42%
- Emax [6, 14]: 84%
- Selectivity 5-HT2A/2C (binding) ([7]; from Ki values, Table 1): 1.55
- Ki ([7]; human receptor, [3H]ketanserin displacement, no unit in the table, nM, read-out: 5-HT2A Ki (in parentheses) (converted)): 44.7 nM
- EC50 ([8]; Ca2+ mobilization, no unit in the table, nM, read-out: 5-HT2C EC50 (in parentheses) (converted)): 3.8 nM
- Emax ([8]; HeLa, read-out: 5-HT2C % Emax): 88.7 ± 4.22%
- Selectivity 5-HT2C/2A (functional, in parentheses) ([8]; from EC50 values, Table 2): 0.53
- Selectivity 5-HT2C/2A (binding, in parentheses) ([9]; from Ki values, Table 1): 0.65
- Ki ([9]; human receptor, [3H]mesulergine displacement, no unit in the table, nM, read-out: 5-HT2C Ki (in parentheses) (converted)): 69.2 nM

Structure (SMILES): CC(C)N(CCc1c[nH]c2ccccc12)C(C)C [N,N-diisopropyltryptamine]
- Ki [10]: 6500 nM
- Ki [11]: 1200 nM

Structure (SMILES): CN(C)CCc1c[nH]c2ccccc12 [N,N-dimethyltryptamine]
- Ki [10]: 424 nM
- Ki [11]: 237 nM

Structure (SMILES): COc1ccc2[nH]cc(CCN(C)C(C)C)c2c1 [N-isopropyl-N-methyl-5-methoxytryptamine]
- Ki [10]: 1300 nM
- Ki [11]: 165 nM

Structure (SMILES): C[C@H]1CNCCc2ccc(Cl)cc21 [lorcaserin, 1(R)-8-chloro-1-methyl.2,3,4,5-tetrahydro-(1H)-3-benzazepine]
- agonist character at 5-HT2C (in words) [12]: full 5-HT2C agonist
- pEC50(2A) ([13]; Fig 6): 6.8
- efficacy at 5-HT2A receptors ([13]; partial agonist): about 70%

From publication PMC6328172, “5-HT2 receptor binding, functional activity and selectivity in N-benzyltryptamines” (PLoS ONE, 2019)
